These results are taken from paper PMC11820219 (Nutrients, 2025).

Data set [1] concerns the target T1, α-glucosidase (Saccharomyces cerevisiae, UniProt P53341). To be noted: reported compound; cited from earlier work.
For data set [2], the system named is HepG2 cells. Kind of data set: HepG2 cell survival rate (CCK-8). To be noted: 0–200 µg/mL, 24 h. The data set is classed as cell-based, human. The method, then:
(§1) HepG2 cells at 10 to 40 generations were configured at a concentration of 4 × 10^5/mL. The cells suspension 100 µL was inoculated into a culture plate with DMEM (10 mL) containing glucose 4.5 g/L, 10% FBS, penicillin (1000 U/mL), and streptomycin ([…]), and cultivated in a 37 °C, 5% CO2 incubator.
Each sample was added to a 96-well plate with HepG2 cells and incubated in a 37 °C, 5% CO2 incubator for 24 h. After washing twice with PBS, the CCK-8 solution 100 µL was added, and incubated for another 4 h. The absorbance at 450 nm was measured using a Microplate reader (Bio TekGen5, BioTech Instruments, Co., Ltd., Winooski, VT, USA). The cells’ survival rates were calculated based on the formula as shown below:Cell survival rate (%) = A samples/A black control × 100%(5)

In data set [3] the test system is AMPK signaling pathway (p-AMPK, ACC, GLUT4). Nature of the data set: Western blotting of AMPK pathway proteins in high-glucose HepG2 cells. The data set is classed as cell-based, human. The procedure: Protein samples of 20 µg were separated by sodium dodecyl sulfate polyacrylamide gel electrophoresis in the Bio-Rad electrophoresis apparatus (Liuyi Biotechnology Co., Ltd., Beijing, China), and then transferred to polyvinylidene fluoride membranes. The electrophoretic proteins were sealed with 5% skimmed milk at room temperature for 1 h, and the membranes were incubated overnight with primary antibodies, including AMPK, phospho-AMPK (p-AMPK), acetyl CoA carboxylase (ACC, EC 6.4.1.2), and glucose transporter 4 (GLUT4) at 4 °C. After washing the membrane with phosphate-buffered saline tween-20, the membranes were incubated with secondary antibodies at room temperature for 1 h.

The target of data set [4] is T1, α-glucosidase. Kind of data set: fluorescence quenching of α-glucosidase (Stern–Volmer). The data set is classed as binding. The text has this: The mixture was scanned using fluorescence spectroscopy (SpectraMax i3x, Molecular Devices, LLC., San Jose, CA, USA). The excitation wavelength was set at 280 nm, and the emission wavelength at 300–500 nm, with excitation and emission slit widths of 5 nm. Then, the following Stern–Volmer dynamic collision quenching equations were applied to calculate the fluorescence quenching parameters, including the quenching constants (KSV), quenching rate constant (Kq), binding constant (Ka), and binding site number (n). The equations are described below:(2) F0/F=1+KSV[Q]=1+Kqτ0[Q] (3) lgF0−F/F=lgKa+nlg[Q]

In data set [5] the test system is streptozocin-induced diabetic mice. Further details: method as in PMID 27687881. To be noted: cited from earlier work.
In data set [6] the test system is high-glucose HepG2 cells. Kind of data set: high-glucose (insulin-resistant) HepG2 model: glucose, TC, TG. The data set is classed as cell-based, human. To be noted: for hypoglycemic effect (glucose level) compared between concentrations: 80 µg/mL, superior to acarbose positive control 5 µg/mL. The procedure: as §1
When the cells were increased to about 80%, insulin at a concentration of 10^−5 mmol/L was treated for 24 h to induce the formation of insulin-resistant cells. […] After the treatment of 24 h with different samples, the glucose, TC, and TG content in the HepG2 cell supernatant was measured with glucose, TC, and TG assay kits.

In data set [7] the test system is Müller cells. To be noted: high glucose; cited from earlier work.
Data set [8] concerns the target T1, α-glucosidase. Kind of data set: FT-IR secondary structure of α-glucosidase (amide I curve fitting). To be noted: astragalin 100 µg/mL. The source says: The secondary conformation of α-glucosidase (1 U/mL) with or without sample treatment were detected with a Fourier transform infrared spectrometer (FT-IR) (VERTEX 7.0, BRUKER Co., Ltd., Bremen, Germany), by fitting the infrared amide type I curve (1600–1700 cm^−1).

The mark [9] stands for this setting: different concentrations, high-glucose HepG2 cells.

T1 sequence (P53341 whole entry): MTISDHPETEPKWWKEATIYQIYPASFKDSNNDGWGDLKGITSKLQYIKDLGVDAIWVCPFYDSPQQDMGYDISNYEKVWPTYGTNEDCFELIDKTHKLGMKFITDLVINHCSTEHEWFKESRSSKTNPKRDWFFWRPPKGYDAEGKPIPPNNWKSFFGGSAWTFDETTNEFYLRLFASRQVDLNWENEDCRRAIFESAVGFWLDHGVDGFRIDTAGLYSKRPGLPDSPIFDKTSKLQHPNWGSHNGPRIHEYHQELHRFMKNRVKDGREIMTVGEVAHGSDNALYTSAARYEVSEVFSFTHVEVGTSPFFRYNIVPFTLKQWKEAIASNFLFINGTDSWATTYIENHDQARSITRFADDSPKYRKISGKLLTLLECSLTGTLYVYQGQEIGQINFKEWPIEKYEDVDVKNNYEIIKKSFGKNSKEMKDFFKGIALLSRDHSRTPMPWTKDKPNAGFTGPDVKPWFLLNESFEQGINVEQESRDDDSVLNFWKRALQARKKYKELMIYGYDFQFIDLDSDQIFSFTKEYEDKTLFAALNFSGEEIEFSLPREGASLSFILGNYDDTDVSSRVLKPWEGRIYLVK

Turning to `COc1cc(OC)c2c(ccc3cc(OC)c(O)cc32)c1` [batatasin I], the 50% inhibitory concentration (IC50) (commonly the midpoint of a concentration-inhibition curve) in data set [1] is 2550 µM.

`O=c1c(O[C@@H]2O[C@H](CO)[C@@H](O)[C@H](O)[C@H]2O)c(-c2ccc(O)cc2)oc2cc(O)cc(O)c12` [astragalin, kaempferol-3-O-β-D-glucopyranoside]: the CCK-8 cell survival result in data set [2] was “within the safe range”. Moreover, in data set [3] (20 µg/mL), the “GLUT4 protein expression level” value is “significantly increased”. In data set [3] (80 µg/mL), the “ACC protein expression level” value is reported as “significantly down-regulated”. In data set [3] (80 and 200 µg/mL), the “p-AMPK protein expression level” value was “up-regulated”. Also, the “KSV (quenching constant)” value in data set [4] (298 K) is 9.093 ×10^3 Lmol^−1; in data set [4] (304 K), 7.903 ×10^3 Lmol^−1; in data set [4] (310 K) it was 7.061 ×10^3 Lmol^−1. Besides, the “n (binding site number)” value in data set [4] (298 K) was found to be 1.238; in data set [4] (304 K), 1.1905; in data set [4] (310 K), 0.8446. Moreover, the “maximum fluorescence emission wavelength of α-glucosidase with astragalin” value in data set [4] (free enzyme around 346 nm, excitation 280 nm, 298 K) is given as 349 nm. In data set [4] (under three temperature conditions, compared with maximum diffusion collision quenching constant), the Kq values result is on record as “higher than 2.0 × 10^10 Lmol^−1 s^−1”. For the same molecule, in data set [5], the “hypoglycemic effects in diabetic mice” value was “improved the glucose tolerance and reduced the level of glucose”. In addition, the “hypoglycemic effect (glucose level) compared between concentrations” value is “the activity was the strongest” in data set [6] and “best hypoglycemic effect” in data set [6] (listed as Astragalin). Also, the “glucose level in the cells” value in data set [6] (20, 80, and 200 µg/mL, 24 h, insulin-induced high-glucose HepG2) is recorded as “reduced the glucose level in the cells”. Further, the TC level result in data set [6] (setting [9]) is recorded as “reduced the levels of TC”. Further, the TG level entry in data set [6] (setting [9]) is “reduced the levels of TC and TG”. The “vascular endothelial growth factor over-expression” value in data set [7] is listed as “decreased the over-expression”. For the same molecule, the “β-turn content of α-glucosidase with astragalin” value in data set [8] (without astragalin 11.72%) amounted to 19.30%. The “β-sheet content of α-glucosidase with astragalin” value in data set [8] (without astragalin 11.94%) amounted to 4.71%. Further, the “random coil content of α-glucosidase with astragalin” value in data set [8] (without astragalin 21.08%) is 38.79%.
